Like-named read-outs stand apart in the source and are kept apart here.
Biological target: T1, BRM (Homo sapiens, UniProt P51531)
T1 construct: In-Cell Western Screen of BRM Degradation in SW1573 Cells; endogenous in cells; host or cells: SW1573
Assay: In-cell Western screen of BRM degradation in SW1573 cells (Dmax and DC50)
Type: cell-based
Outline: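 After adhering overnight, cells received compound for 18-20 hours. They were then washed in cold DPBS, fixed with 4% PFA for 20 min and permeabilized for 30 min. Blocking and fluorescent secondary staining followed before imaging.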

[1] = BRM degradation, SW1573 cells, read-out: DC50
[2] = target protein degradation, read-out: BRM DC50
[3] = BRM degradation, SW1573 cells, tested at the top concentration of between 0.3 and 10 μM, read-out: Dmax (%) (% degraded)

T1 sequence (P51531 whole entry): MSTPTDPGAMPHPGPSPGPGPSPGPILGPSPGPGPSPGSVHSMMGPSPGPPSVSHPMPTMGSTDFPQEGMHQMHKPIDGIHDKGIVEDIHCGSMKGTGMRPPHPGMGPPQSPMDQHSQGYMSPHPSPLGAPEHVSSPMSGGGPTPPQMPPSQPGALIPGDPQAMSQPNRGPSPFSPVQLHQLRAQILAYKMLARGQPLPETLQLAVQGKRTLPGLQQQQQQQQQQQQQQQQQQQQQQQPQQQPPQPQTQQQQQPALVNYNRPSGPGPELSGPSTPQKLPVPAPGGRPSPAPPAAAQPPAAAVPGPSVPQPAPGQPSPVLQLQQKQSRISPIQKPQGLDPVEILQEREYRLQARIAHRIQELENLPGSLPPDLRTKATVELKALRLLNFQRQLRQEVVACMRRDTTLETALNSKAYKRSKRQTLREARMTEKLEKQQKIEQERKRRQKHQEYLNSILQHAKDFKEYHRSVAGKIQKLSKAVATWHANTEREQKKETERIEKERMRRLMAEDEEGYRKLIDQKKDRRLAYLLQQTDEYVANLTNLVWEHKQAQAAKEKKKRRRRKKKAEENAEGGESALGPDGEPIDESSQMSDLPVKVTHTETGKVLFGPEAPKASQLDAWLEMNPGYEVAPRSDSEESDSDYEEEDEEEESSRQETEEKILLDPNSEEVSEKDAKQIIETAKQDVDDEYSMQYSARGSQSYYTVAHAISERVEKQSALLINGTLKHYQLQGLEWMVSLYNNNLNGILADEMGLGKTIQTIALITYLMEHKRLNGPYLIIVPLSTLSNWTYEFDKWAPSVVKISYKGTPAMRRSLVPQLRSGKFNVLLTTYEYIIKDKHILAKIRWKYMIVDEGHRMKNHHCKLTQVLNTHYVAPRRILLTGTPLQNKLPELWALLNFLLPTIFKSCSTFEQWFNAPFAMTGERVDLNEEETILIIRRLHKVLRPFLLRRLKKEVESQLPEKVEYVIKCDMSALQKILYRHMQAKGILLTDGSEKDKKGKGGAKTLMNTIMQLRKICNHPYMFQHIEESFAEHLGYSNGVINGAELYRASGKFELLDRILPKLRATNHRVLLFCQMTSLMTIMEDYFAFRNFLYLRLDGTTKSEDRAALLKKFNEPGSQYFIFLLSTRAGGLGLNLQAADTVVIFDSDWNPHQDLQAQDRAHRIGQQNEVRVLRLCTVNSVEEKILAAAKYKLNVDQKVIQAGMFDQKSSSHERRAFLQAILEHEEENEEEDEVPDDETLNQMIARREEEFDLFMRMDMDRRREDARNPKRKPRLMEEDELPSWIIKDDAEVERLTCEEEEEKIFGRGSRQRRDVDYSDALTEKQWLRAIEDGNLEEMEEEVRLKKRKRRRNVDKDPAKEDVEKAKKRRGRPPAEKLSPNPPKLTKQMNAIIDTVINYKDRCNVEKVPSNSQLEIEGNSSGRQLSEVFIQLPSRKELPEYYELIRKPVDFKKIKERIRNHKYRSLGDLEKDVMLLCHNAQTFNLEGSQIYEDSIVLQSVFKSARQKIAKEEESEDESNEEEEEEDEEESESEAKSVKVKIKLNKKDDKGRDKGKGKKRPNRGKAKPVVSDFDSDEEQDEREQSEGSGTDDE

Compound | DC50 [1] [nM] | Dmax [3] [%] | further results
Cc1ncsc1-c1ccc([C@H](C)NC(=O)[C@@H]2C[C@@H](O)CN2C(=O)[C@H](c2cc(N3CCCC(CN4CCC(O[C@H]5C[C@H](Oc6cc(N7C8CCC7CN(c7cc(-c9ccccc9O)nnc7N)C8)ccn6)C5)CC4)C3)no2)C(C)C)cc1 (stereo partly drawn) [compound 655, (2S,4R)-1-((2S)-2-(3-(3-((4-((1r,3S)-3-((4-(3-(3-amino-6-(2-hydroxyphenyl)pyridazin-4-yl)-3,8-diazabicyclo[3.2.1]octan-8-yl)pyridin-2-yl)oxy)cyclobutoxy)piperidin-1-yl)methyl)piperidin-1-yl)isoxazol-5-yl)-3-methylbutanoyl)-4-hydroxy-N-((S)-1-(4-(4-methylthiazol-5-yl)phenyl)ethyl)pyrrolidine-2-carboxamide] | > 30 |  | 
Cc1ncsc1-c1ccc([C@H](C)NC(=O)[C@@H]2C[C@@H](O)CN2C(=O)[C@H](c2cc(OC[C@@H]3C[C@H]3c3ccc(O[C@H]4C[C@H](Oc5cc(N6C7CCC6CN(c6cc(-c8ccccc8O)nnc6N)C7)ccn5)C4)cn3)no2)C(C)C)cn1 [compound 479, (2S,4R)-1-((2S)-2-(3-(((1R,2R)-2-(5-((1r,3R)-3-((4-(3-(3-amino-6-(2-hydroxyphenyl)pyridazin-4-yl)-3,8-diazabicyclo[3.2.1]octan-8-yl)pyridin-2-yl)oxy)cyclobutoxy)pyridin-2-yl)cyclopropyl)methoxy)isoxazol-5-yl)-3-methylbutanoyl)-4-hydroxy-N-((S)-1-(6-(4-methylthiazol-5-yl)pyridin-3-yl)ethyl)pyrrolidine-2-carboxamide] |  |  | DC50 [2]: > 30 nM
Cc1cc([C@@H](C(=O)N2C[C@H](O)C[C@H]2C(=O)N[C@@H](C)c2ccc(-c3scnc3C)cc2)[C@@H](C)COCCOc2cc(N3C4CCC3CN(c3cc(-c5ccccc5O)nnc3N)C4)ccn2)on1 [compound 301, (2S,4R)-1-((2S,3R)-4-(2-((4-(3-(3-amino-6-(2-hydroxyphenyl)pyridazin-4-yl)-3,8-diazabicyclo[3.2.1]octan-8-yl)pyridin-2-yl)oxy)ethoxy)-3-methyl-2-(3-methylisoxazol-5-yl)butanoyl)-4-hydroxy-N-((S)-1-(4-(4-methylthiazol-5-yl)phenyl)ethyl)pyrrolidine-2-carboxamide] | 2.5 to 10 | > 75 | 
Cc1cc([C@H](C(=O)N2C[C@H](O)C[C@H]2C(=O)N[C@@H](C)c2ccc(-c3scnc3C)cc2)[C@H](C)COCCn2cc(-c3cc(-c4ccccc4O)nnc3N)cn2)on1 [compound 538, (2S,4R)-1-((2R,3S)-4-(2-(4-(3-amino-6-(2-hydroxyphenyl)pyridazin-4-yl)-1H-pyrazol-1-yl)ethoxy)-3-methyl-2-(3-methylisoxazol-5-yl)butanoyl)-4-hydroxy-N-((S)-1-(4-(4-methylthiazol-5-yl)phenyl)ethyl)pyrrolidine-2-carboxamide] |  |  | DC50 (BRM degradation, SW1573 cells, Table 2D, read-out: *DC50): > 30 nM
Cc1ncsc1-c1ccc([C@H](C)NC(=O)[C@@H]2C[C@@H](O)CN2C(=O)[C@H](c2cc(OCCC3CCN(C(=O)[C@H]4C[C@H](Oc5cc(N6C7CCC6CN(c6cc(-c8ccccc8O)nnc6N)C7)ccn5)C4)CC3)no2)C(C)C)cn1 [compound 260, (2S,4R)-1-((2S)-2-(3-(2-(1-((1r,3S)-3-((4-(3-(3-amino-6-(2-hydroxyphenyl)pyridazin-4-yl)-3,8-diazabicyclo[3.2.1]octan-8-yl)pyridin-2-yl)oxy)cyclobutane-1-carbonyl)piperidin-4-yl)ethoxy)isoxazol-5-yl)-3-methylbutanoyl)-4-hydroxy-N-((S)-1-(6-(4-methylthiazol-5-yl)pyridin-3-yl)ethyl)pyrrolidine-2-carboxamide] | > 30 |  | 
Cc1cc([C@H](C(=O)N2C[C@H](O)C[C@H]2C(=O)N[C@@H](C)c2ccc(-c3scnc3C)cc2)[C@H](C)COCCCCN2C3CCC2CN(c2cc(-c4ccccc4O)nnc2N)C3)on1 [compound 425, (2S,4R)-1-((2R,3S)-4-(4-(3-(3-amino-6-(2-hydroxyphenyl)pyridazin-4-yl)-3,8-diazabicyclo[3.2.1]octan-8-yl)butoxy)-3-methyl-2-(3-methylisoxazol-5-yl)butanoyl)-4-hydroxy-N-((S)-1-(4-(4-methylthiazol-5-yl)phenyl)ethyl)pyrrolidine-2-carboxamide] |  |  | DC50 (degradation of BRM, read-out: BRM DC50): > 30 nM
Cc1ncsc1-c1ccc([C@H](C)NC(=O)[C@@H]2C[C@@H](O)CN2C(=O)[C@@H](c2cc(N3CCN(C(C)[C@H]4C[C@H](Oc5cc(N6C7CCC6CN(c6cc(-c8ccccc8O)nnc6N)C7)ccn5)C4)CC3)no2)C(C)C)cc1 (stereo partly drawn) [compound 704, (2S,4R)-1-((2R)-2-(3-(4-((1S)-1-((1r,3S)-3-((4-(3-(3-amino-6-(2-hydroxyphenyl)pyridazin-4-yl)-3,8-diazabicyclo[3.2.1]octan-8-yl)pyridin-2-yl)oxy)cyclobutyl)ethyl)piperazin-1-yl)isoxazol-5-yl)-3-methylbutanoyl)-4-hydroxy-N-((S)-1-(4-(4-methylthiazol-5-yl)phenyl)ethyl)pyrrolidine-2-carboxamide] | < 2.5 |  | Dmax (BRM degradation, SW1573 cells, read-out: Dmax (% degraded)): > 75%
Cc1ncsc1-c1ccc([C@H](C)NC(=O)[C@@H]2C[C@@H](O)CN2C(=O)[C@H](c2cc(OCCC3CCN(C(=O)[C@H]4C[C@@H](CN5CCC([C@@H](C)n6cc(-c7cc(-c8ccccc8O)nnc7N)cn6)CC5)C4)CC3)no2)C(C)C)cc1 [compound 451, (2S,4R)-1-((S)-2-(3-(2-(1-((1S,3R)-3-((4-((R)-1-(4-(3-amino-6-(2-hydroxyphenyl)pyridazin-4-yl)-1 H-pyrazol-1-yl)ethyl)piperidin-1-yl)methyl)cyclobutane-1-carbonyl)piperidin-4-yl)ethoxy)isoxazol-5-yl)-3-methylbutanoyl)-4-hydroxy-N-((S)-1-(4-(4-methylthiazol-5-yl)phenyl)ethyl)pyrrolidine-2-carboxamide] |  |  | Dmax (SW1573, % degraded, when tested at the top concentration of between 0.3 and 10 μM, read-out: BRM Dmax (%)): > 75%; DC50 [2]: < 2.5 nM
Cc1cc([C@H](C(=O)N2C[C@H](O)C[C@H]2C(=O)N[C@@H](C)c2ccc(-c3scnc3C)cc2)[C@@H](C)COCCOc2cc(N3C4CCC3CN(c3cc(-c5ccccc5O)nnc3N)C4)ccn2)on1 [compound 302, (2S,4R)-1-((2R,3R)-4-(2-((4-(3-(3-amino-6-(2-hydroxyphenyl)pyridazin-4-yl)-3,8-diazabicyclo[3.2.1]octan-8-yl)pyridin-2-yl)oxy)ethoxy)-3-methyl-2-(3-methylisoxazol-5-yl)butanoyl)-4-hydroxy-N-((S)-1-(4-(4-methylthiazol-5-yl)phenyl)ethyl)pyrrolidine-2-carboxamide] | 10 to 30 | > 75 | 
CCOC[C@H](NC(=O)[C@@H]1C[C@@H](O)CN1C(=O)[C@@H](c1cc(OCCN2CCN(CCOc3cc(N4C5CCC4CN(c4cc(-c6ccccc6O)nnc4N)C5)ccn3)CC2)no1)C(C)C)c1ccc(-c2scnc2C)cc1 [compound 128, (2S,4R)-1-((2R)-2-(3-(2-(4-(2-((4-(3-(3-amino-6-(2-hydroxyphenyl)pyridazin-4-yl)-3,8-diazabicyclo[3.2.1]octan-8-yl)pyridin-2-yl)oxy)ethyl)piperazin-1-yl)ethoxy)isoxazol-5-yl)-3-methylbutanoyl)-N-((R)-2-ethoxy-1-(4-(4-methylthiazol-5-yl)phenyl)ethyl)-4-hydroxypyrrolidine-2-carboxamide] | < 2.5 |  | Dmax (BRM degradation, SW1573 cells, when tested at the top concentration of between 0.3 and 10 μM, read-out: Dmax (%) (% degraded)): > 75%
Cc1ncsc1-c1ccc([C@H](C)NC(=O)[C@@H]2C[C@@H](O)CN2C(=O)[C@H](c2cc(N3CCC(O)(CN4CCC(O[C@H]5C[C@H](Oc6cc(N7C8CCC7CN(c7cc(-c9ccccc9O)nnc7N)C8)ccn6)C5)CC4)CC3)no2)C(C)C)cc1 [compound 641, (2S,4R)-1-((2S)-2-(3-(4-((4-((1r,3r)-3-((4-(3-(3-amino-6-(2-hydroxyphenyl)pyridazin-4-yl)-3,8-diazabicyclo[3.2.1]octan-8-yl)pyridin-2-yl)oxy)cyclobutoxy)piperidin-1-yl)methyl)-4-hydroxypiperidin-1-yl)isoxazol-5-yl)-3-methylbutanoyl)-4-hydroxy-N-((S)-1-(4-(4-methylthiazol-5-yl)phenyl)ethyl)pyrrolidine-2-carboxamide] | > 30 |  | 
Cc1ncsc1-c1ccc([C@@H](NC(=O)[C@@H]2C[C@@H](O)CN2C(=O)[C@H](c2cc(OCCN3CCC(O[C@H]4C[C@H](Oc5cc(N6C7CCC6CN(c6cc(-c8ccccc8O)nnc6N)C7)ccn5)C4)CC3)no2)C(C)C)C(F)F)cc1 [compound 267, (2S,4R)-1-((2S)-2-(3-(2-(4-((1r,3S)-3-((4-(3-(3-amino-6-(2-hydroxyphenyl)pyridazin-4-yl)-3,8-diazabicyclo[3.2.1]octan-8-yl)pyridin-2-yl)oxy)cyclobutoxy)piperidin-1-yl)ethoxy)isoxazol-5-yl)-3-methylbutanoyl)-N-((R)-2,2-difluoro-1-(4-(4-methylthiazol-5-yl)phenyl)ethyl)-4-hydroxypyrrolidine-2-carboxamide] | 2.5 to 10 | > 75 | 
Cc1ncsc1-c1ccc([C@H](C)NC(=O)[C@@H]2C[C@@H](O)CN2C(=O)[C@@H](c2cc(OCCC3CCN(C[C@H]4C[C@H](Oc5cc(N6C7CCC6CN(c6cc(-c8ccccc8O)nnc6N)C7)ccn5)C4)CC3)no2)C(C)C)cn1 [compound 288, (2S,4R)-1-((2R)-2-(3-(2-(1-(((1r,3R)-3-((4-(3-(3-amino-6-(2-hydroxyphenyl)pyridazin-4-yl)-3,8-diazabicyclo[3.2.1]octan-8-yl)pyridin-2-yl)oxy)cyclobutyl)methyl)piperidin-4-yl)ethoxy)isoxazol-5-yl)-3-methylbutanoyl)-4-hydroxy-N-((S)-1-(6-(4-methylthiazol-5-yl)pyridin-3-yl)ethyl)pyrrolidine-2-carboxamide] | < 2.5 | > 75 | 

From US12539292B2, “BRM targeting compounds and associated methods of use” (Arvinas Operations, Inc., priority 2018, dated 2026)
